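48-hour exposure; five concentrations; linearly interpolated endpoints. GI50 is the concentration that inhibits growth by half.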 The source made the active and inactive calls. Cut-off read from the data, not from the text of the source: active = GI50 up to about 1.1 µM and inactive = higher.

Test systems include SW-620; HCT-116; SK-MEL-28; SN12C; TK-10; SNB-75; OVCAR-8; A549; OVCAR-5; UACC-62; NCI-H23; CAKI-1; HOP-92; ACHN; NCI/ADR-RES; MCF7; UACC-257; MDA-MB-435; NCI-H522.
Common to all, as to assay: NCI anticancer screen, dose series, 48 h

Regarding `C[C@@H](O)C(=O)N1[C@@H]2CC3CC[C@]2(CS1(=O)=O)C3(C)C`, the GI50 with SW-620 was 28.1 µM (inactive); in the assay on HCT-116, 67.8 µM (inactive); with SK-MEL-28 it was 76.2 µM (inactive); with SN12C, 55.5 µM (inactive); in the assay on TK-10, > 100 µM (inactive); in the assay on SNB-75, > 100 µM (inactive). For the same molecule, the GI50 in the assay with OVCAR-8 is > 100 µM (inactive); in the assay on A549, 95.1 µM (inactive); in the assay on OVCAR-5 it was > 100 µM (inactive); in the assay on UACC-62, > 100 µM (inactive); in the assay on NCI-H23 it was 62.2 µM (inactive); with CAKI-1, > 100 µM (inactive). Also, the GI50 with HOP-92 is 66.1 µM (inactive); in the assay with ACHN, 64.1 µM (inactive); in the assay with NCI/ADR-RES, > 100 µM (inactive); in the assay with MCF7, > 100 µM (inactive); with UACC-257, > 100 µM (inactive); in the assay on MDA-MB-435 it was 63.8 µM (inactive).

With `COc1ccc(NC(=O)CC(=O)NN2C(=O)/C(=C/c3ccc(N(CCC#N)CCC#N)cc3C)N=C2/C=C\c2ccccc2)cc1`, the GI50 in the assay on SW-620 is > 100 µM (inactive); with HCT-116, > 100 µM (inactive); with SK-MEL-28, > 100 µM (inactive); in the assay with SN12C it was > 100 µM (inactive); in the assay on TK-10 it was > 100 µM (inactive); in the assay on SNB-75 it was 59.3 µM (inactive). The GI50 in the assay on OVCAR-8, in the assay on A549, with OVCAR-5, in the assay with UACC-62, in the assay with NCI-H23 and in the assay with CAKI-1 was > 100 µM (inactive) throughout. Also, the GI50 in the assay on HOP-92, in the assay on ACHN, in the assay on NCI-H522 and in the assay on UACC-257 was > 100 µM (inactive) each time.

On to `CC(C)(C)c1nc2c(o1)/C(=N\c1ccccc1)c1ccccc1C2=O`, for which the GI50 is 4.47 µM (inactive) in the assay on SW-620; 3.23 µM (inactive) in the assay with HCT-116; 4.4 µM (inactive) in the assay with SK-MEL-28; 3.64 µM (inactive) in the assay on SN12C; 30.2 µM (inactive) in the assay with TK-10; 5.61 µM (inactive) in the assay on SNB-75. Besides, the GI50 in the assay with OVCAR-8 is 2.72 µM (inactive); in the assay on A549, 7.6 µM (inactive); in the assay on OVCAR-5, 13.6 µM (inactive); with UACC-62, 2.17 µM (inactive); in the assay with NCI-H23, 1.44 µM (inactive); in the assay on CAKI-1 it was 12 µM (inactive). Further, the GI50 in the assay with HOP-92 is 4.69 µM (inactive); in the assay on ACHN, 4.69 µM (inactive); in the assay on NCI-H522, 2.91 µM (inactive); in the assay with UACC-257, 1.72 µM (inactive).

With `CS(=O)(=O)OCCCSCCSCCCOS(C)(=O)=O`, the GI50 in the assay with SW-620, with HCT-116, in the assay with SK-MEL-28, in the assay with SN12C, in the assay on TK-10 and with SNB-75 was > 100 µM (inactive) in each case. In addition, the GI50 in the assay on OVCAR-8 was > 100 µM (inactive); in the assay on A549, > 100 µM (inactive); in the assay with OVCAR-5, > 100 µM (inactive); with UACC-62, > 100 µM (inactive); in the assay on NCI-H23 it was > 100 µM (inactive); with HOP-92, 40.2 µM (inactive). Moreover, the GI50 in the assay with NCI/ADR-RES, in the assay with MCF7, in the assay with NCI-H522, in the assay on UACC-257 and in the assay with MDA-MB-435 was > 100 µM (inactive) throughout.

Take `NC(=O)C(=O)CC(=O)c1ccccc1NC1=CC(=O)C(=O)c2ccccc21`: the GI50 in the assay with SW-620 is 43.8 µM (inactive); in the assay with HCT-116 it was 53.1 µM (inactive); in the assay on SK-MEL-28, > 51.1 µM (inactive); in the assay on SN12C, 51.6 µM (inactive); in the assay on TK-10 it was > 100 µM (inactive); in the assay on SNB-75 it was > 88.3 µM (inactive). The GI50 in the assay with OVCAR-8 was 48.2 µM (inactive); with A549 it was > 100 µM (inactive); with OVCAR-5, > 100 µM (inactive); with UACC-62, 40.6 µM (inactive); in the assay with NCI-H23 it was 31.2 µM (inactive); in the assay on CAKI-1 it was > 100 µM (inactive). The GI50 with HOP-92 was 23.9 µM (inactive); with ACHN it was > 87.9 µM (inactive); with NCI-H522 it was 30.2 µM (inactive); in the assay with UACC-257, 34.7 µM (inactive).

As for `COc1cc([C@@H]2c3cc4c(cc3[C@@H](NCc3ccc(C#N)cc3)C3COC(=O)[C@@H]32)OCO4)cc(OC)c1O` (some centres not stated), the GI50 in the assay on SW-620 is 0.766 µM (active); in the assay with HCT-116, 1.19 µM (inactive); in the assay with SK-MEL-28 it was 2.33 µM (inactive); with SN12C, 0.414 µM (active); with TK-10, 1.84 µM (inactive); in the assay with SNB-75, 0.628 µM (active). Also, the GI50 in the assay with OVCAR-8 was 1.2 µM (inactive); with A549 it was 0.0923 µM (active); with OVCAR-5 it was 2.02 µM (inactive); in the assay with UACC-62 it was 0.55 µM (active); in the assay with NCI-H23, 0.317 µM (active); in the assay with CAKI-1, 1.26 µM (inactive). Further, the GI50 in the assay on HOP-92 was 1.88 µM (inactive); with ACHN, 0.272 µM (active); in the assay with NCI-H522, 1.09 µM (active); in the assay with UACC-257, 4.76 µM (inactive).

For the molecule `O=[N+]([O-])c1ccc(Cl)c(C2CC(c3cccc4ccccc34)=Nc3ccccc3[S+]2[O-])c1` (configuration not stated), the GI50 with SW-620 is 7.85 µM (inactive); with HCT-116 it was 9.73 µM (inactive); in the assay on SK-MEL-28, 19.4 µM (inactive); in the assay on SN12C, 21 µM (inactive); in the assay with TK-10, 31.8 µM (inactive); with SNB-75 it was 5.86 µM (inactive). Moreover, the GI50 in the assay on OVCAR-8 is 8.77 µM (inactive); in the assay with A549, 20 µM (inactive); in the assay on OVCAR-5, 29.5 µM (inactive); in the assay on UACC-62, 10.6 µM (inactive); in the assay with NCI-H23, 8.75 µM (inactive); in the assay on CAKI-1, 13.2 µM (inactive). The GI50 is 0.519 µM (active) in the assay with HOP-92, 18.5 µM (inactive) with ACHN, 7.23 µM (inactive) in the assay on NCI-H522 and 17 µM (inactive) in the assay with UACC-257.

In the case of `COc1ccc(OC)c(-c2cc(O)c3cc4c(cc3n2)OCO4)c1`, the GI50 was 3.83 µM (inactive) in the assay on SW-620; 4.14 µM (inactive) in the assay on HCT-116; 5.87 µM (inactive) in the assay with SK-MEL-28; 6.79 µM (inactive) in the assay on SN12C; 11 µM (inactive) with TK-10; 3.44 µM (inactive) in the assay with SNB-75. Besides, the GI50 in the assay on OVCAR-8 is 9.59 µM (inactive); in the assay with A549 it was 5.87 µM (inactive); with OVCAR-5, 8.53 µM (inactive); in the assay with UACC-62 it was 3.58 µM (inactive); with NCI-H23 it was 3.44 µM (inactive); in the assay on CAKI-1 it was 4.12 µM (inactive). For the same molecule, the GI50 was 3.54 µM (inactive) in the assay on HOP-92, 6.58 µM (inactive) in the assay on ACHN, 2.85 µM (inactive) in the assay with NCI-H522 and 7.69 µM (inactive) in the assay on UACC-257.

As to `CCSc1nc2sc(C)c(C)c2c(=O)n1-c1ccc(C(=O)O)cc1`, the GI50 with SW-620 is > 100 µM (inactive); in the assay with HCT-116, 22.7 µM (inactive); in the assay on SK-MEL-28, 54.5 µM (inactive); with SN12C, 55.1 µM (inactive); in the assay with TK-10, > 100 µM (inactive); in the assay with SNB-75 it was 13.6 µM (inactive). The GI50 is 72.4 µM (inactive) in the assay with OVCAR-8; 65.3 µM (inactive) in the assay on A549; > 100 µM (inactive) in the assay on OVCAR-5; > 100 µM (inactive) with UACC-62; 38.3 µM (inactive) with NCI-H23; > 100 µM (inactive) with CAKI-1. Further, the GI50 in the assay on HOP-92 is > 100 µM (inactive); in the assay with ACHN, 79.6 µM (inactive); in the assay on NCI-H522 it was 23.2 µM (inactive); in the assay with UACC-257, 98.4 µM (inactive).
